The numbers were not newly measured in US6472222B2, “Method of estimating rate of nicotine metabolism in individuals” (Via Christi Research, Inc., priority 1999, dated 2002), which cites them from elsewhere.

Turning to `CN1C(=O)CC[C@H]1c1cccnc1` [cotinine], where the note is “plasma”, the half-life entry is reported as “approximately 19 hours”.
Consider `CN1CCCC1c1cccnc1` (stereo not drawn) [nicotine], for which the “half-life (biphasic elimination, second phase)” value (biphasic elimination, longer of two half-lives) is approximately 2 h. Moreover, the “half-life (biphasic elimination, first, short phase)” value (biphasic elimination, shorter of two half-lives) is “approximately 10 minutes”.
